According to US9150566B2, “2-(1,2,3-triazol-2-yl)benzamide and 3-(1,2,3-triazol-2-YL)picolinamide derivatives as orexin receptor antagonists” (ACTELION PHARMACEUTICALS LTD., priority 2011, dated 2015):
Like-named read-outs stand apart in the source and are kept apart here.

How the values were obtained:
[1] = molecular target: CYP3A4 (Homo sapiens (Human), UniProt P08684); test: CYP3A4 inhibition assay (human liver microsomes, testosterone 6β-hydroxylation); settings: read-out: CYP3A4 IC50, 40 μM testosterone
[2] = molecular target: human orexin-2 receptor (Homo sapiens (Human), UniProt O43614); test: In vitro intracellular calcium measurements (FLIPR), antagonistic activity on orexin-2 receptor; type: cell-based; settings: read-out: IC50 OX2
Experimental: (§1) In Vitro Assay: Intracellular Calcium Measurements:
(§2) Chinese hamster ovary (CHO) cells expressing the human orexin-1 receptor and the human orexin-2 receptor, respectively, are grown in culture medium (Ham F-12 with L-Glutamine) containing 300 μg/mL G418, 100 U/mL penicillin, 100 μg/mL streptomycin and 10% heat inactivated fetal calf serum (FCS). The cells are seeded at 20′000 cells/well into 384-well black clear bottom sterile plates (Greiner). The seeded plates are incubated overnight at 37° C. in 5% CO2.
(§3) Within the Fluorescent Imaging Plate Reader (FLIPR Tetra, Molecular Devices), antagonists are added to the plate in a volume of 10 μL/well, incubated for 120 min and finally 10 μL/well of agonist is added. Fluorescence is measured for each well at 1 second intervals, and the height of each fluorescence peak is compared to the height of the fluorescence peak induced by 3 nM orexin-A with vehicle in place of antagonist. […] Optimized conditions were achieved by adjustment of pipetting speed and cell splitting regime. The calculated IC50 values may fluctuate depending on the daily cellular assay performance. Fluctuations of this kind are known to those skilled in the art.

[3] = molecular target: human orexin-1 receptor (Homo sapiens (Human), UniProt O43613); test: In vitro intracellular calcium measurements (FLIPR), antagonistic activity on orexin-1 receptor; type: cell-based; settings: read-out: IC50 OX1
Experimental: as §1, §2, §3

[4] = CHO cells expressing human orexin-2 receptor, FLIPR, 3 nM orexin-A agonist, 120 min antagonist incubation, geometric mean if determined several times
[5] = CHO cells expressing human orexin-1 receptor, FLIPR, 3 nM orexin-A agonist, 120 min antagonist incubation, geometric mean if determined several times

human orexin-2 receptor, sequence (O43614 whole entry): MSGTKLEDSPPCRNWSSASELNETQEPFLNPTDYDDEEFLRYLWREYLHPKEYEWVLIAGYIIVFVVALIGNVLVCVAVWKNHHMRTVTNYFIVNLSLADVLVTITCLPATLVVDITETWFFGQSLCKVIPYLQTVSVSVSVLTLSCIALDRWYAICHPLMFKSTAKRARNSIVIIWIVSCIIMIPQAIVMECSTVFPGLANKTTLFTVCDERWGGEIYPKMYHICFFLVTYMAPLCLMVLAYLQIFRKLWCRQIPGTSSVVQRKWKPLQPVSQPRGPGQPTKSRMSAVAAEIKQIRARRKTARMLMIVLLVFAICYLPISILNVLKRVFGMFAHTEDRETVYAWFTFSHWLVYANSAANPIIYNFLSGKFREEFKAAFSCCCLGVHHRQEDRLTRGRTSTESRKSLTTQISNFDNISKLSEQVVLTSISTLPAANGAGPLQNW
CYP3A4, sequence (P08684 whole entry): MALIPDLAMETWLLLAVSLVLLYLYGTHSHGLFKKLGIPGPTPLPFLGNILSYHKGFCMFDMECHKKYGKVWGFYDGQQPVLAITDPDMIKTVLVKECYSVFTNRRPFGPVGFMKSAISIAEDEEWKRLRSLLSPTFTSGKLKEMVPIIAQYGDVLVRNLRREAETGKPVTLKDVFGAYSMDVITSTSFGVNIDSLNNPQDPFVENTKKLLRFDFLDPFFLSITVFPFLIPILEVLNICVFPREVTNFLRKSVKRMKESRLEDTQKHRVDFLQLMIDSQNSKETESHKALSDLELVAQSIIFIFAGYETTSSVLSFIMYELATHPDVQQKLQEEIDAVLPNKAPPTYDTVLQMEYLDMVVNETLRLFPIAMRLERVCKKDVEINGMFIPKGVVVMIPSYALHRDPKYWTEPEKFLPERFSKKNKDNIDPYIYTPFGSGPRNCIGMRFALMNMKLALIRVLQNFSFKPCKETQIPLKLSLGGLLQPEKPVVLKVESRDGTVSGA
human orexin-1 receptor, sequence (O43613 whole entry): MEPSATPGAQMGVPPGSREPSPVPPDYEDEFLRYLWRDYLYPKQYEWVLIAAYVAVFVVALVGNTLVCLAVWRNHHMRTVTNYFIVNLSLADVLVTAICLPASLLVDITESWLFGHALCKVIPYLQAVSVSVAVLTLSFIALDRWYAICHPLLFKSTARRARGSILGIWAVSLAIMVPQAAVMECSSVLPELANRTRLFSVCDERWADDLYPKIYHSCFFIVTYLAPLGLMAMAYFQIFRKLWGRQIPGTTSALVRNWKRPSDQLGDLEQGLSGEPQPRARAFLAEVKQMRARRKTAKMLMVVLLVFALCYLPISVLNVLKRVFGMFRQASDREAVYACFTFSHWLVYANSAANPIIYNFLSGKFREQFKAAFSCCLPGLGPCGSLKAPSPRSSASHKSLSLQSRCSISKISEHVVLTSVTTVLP

Compound	IC50 [1] [nM]	IC50 [2, 4] [nM]	IC50 [3, 5] [nM]	IC50 [3] [nM]	IC50 [2] [nM]
Cc1ccc(C(=O)N2CCO[C@@H](C)[C@H]2Cc2cccc(-n3nccn3)c2)c(-n2nccn2)c1 (single isomer, unassigned) [Example 163, [(2S,3R)-2-Methyl-3-(3-[1,2,3]triazol-2-yl-benzyl)-morpholin-4-yl]-(4-methyl-2-[1,2,3]triazol-2-yl-phenyl)-methanone or [(2R,3R)-2-Methyl-3-(3-[1,2,3]triazol-2-yl-benzyl)-morpholin-4-yl]-(4-methyl-2-[1,2,3]triazol-2-yl-phenyl)-methanone]	14000	–	–	–	–
Cc1ccc(C(=O)N2CCO[C@H](C)[C@H]2Cc2cccc(-n3nccn3)c2)c(-n2nccn2)c1 (single isomer, unassigned) [Example 168, [(2R,3R)-2-Methyl-3-(3-[1,2,3]triazol-2-yl-benzyl)-morpholin-4-yl]-(4-methyl-2-[1,2,3]triazol-2-yl-phenyl)-methanone or [(2S,3R)-2-Methyl-3-(3-[1,2,3]triazol-2-yl-benzyl)-morpholin-4-yl]-(4-methyl-2-[1,2,3]triazol-2-yl-phenyl)-methanone]	8500	–	–	–	–
Cc1ccc(-n2nccn2)c(C(=O)N2CCOC[C@H]2Cc2cccc(-c3ncccn3)c2)c1F [Example 49, (2-Fluoro-3-methyl-6-[1,2,3]triazol-2-yl-phenyl)-[(R)-3-(3-pyrimidin-2-yl-benzyl)-morpholin-4-yl]-methanone]	21000	582	–	–	–
O=C(c1ccccc1-n1nccn1)N1CCOC[C@H]1Cc1ccc(O)c(-c2ncccn2)c1 [Example 55, [(R)-3-(4-Hydroxy-3-pyrimidin-2-yl-benzyl)-morpholin-4-yl]-(2-[1,2,3]triazol-2-yl-phenyl)-methanone]	–	2010	27	–	–
COc1ccc(C[C@@H]2COCCN2C(=O)c2c(C)cccc2-n2nccn2)cc1-c1ncon1 [Example 63, [(R)-3-(4-Methoxy-3-[1,2,4]oxadiazol-3-yl-benzyl)-morpholin-4-yl]-(2-methyl-6-[1,2,3]triazol-2-yl-phenyl)-methanone]	–	49	9	–	–
Cc1ccc(C(=O)N2[C@H](Cc3cccc(-n4nccn4)c3)COC[C@H]2C)c(-n2nccn2)c1 [Example 69, [(3R,5R)-3-Methyl-5-(3-[1,2,3]triazol-2-yl-benzyl)-morpholin-4-yl]-(4-methyl-2-[1,2,3]triazol-2-yl-phenyl)-methanone]	–	–	–	0.9	314
Cc1cccc(C(=O)N2[C@H](Cc3cccc(-n4nccn4)c3)COC[C@H]2C)c1-n1nccn1 [Example 70, [(3R,5R)-3-Methyl-5-(3-[1,2,3]triazol-2-yl-benzyl)-morpholin-4-yl]-(3-methyl-2-[1,2,3]triazol-2-yl-phenyl)-methanone]	–	2610	5	–	–
Cc1cccc(C(=O)N2[C@H](Cc3cccc(-n4nccn4)c3)COC[C@@H]2C)c1-n1nccn1 [Example 72, [(3S,5R)-3-Methyl-5-(3-[1,2,3]triazol-2-yl-benzyl)-morpholin-4-yl]-(3-methyl-2-[1,2,3]triazol-2-yl-phenyl)-methanone]	–	2460	8	–	–
Cc1cc(C(=O)N2[C@H](Cc3cccc(-n4nccn4)c3)COC[C@@H]2C)c(-n2nccn2)cc1C [Example 74, (4,5-Dimethyl-2-[1,2,3]triazol-2-yl-phenyl)-[(3S,5R)-3-methyl-5-(3-[1,2,3]triazol-2-yl-benzyl)-morpholin-4-yl]-methanone]	–	355	11	–	–
Cc1cc(C(=O)N2CCOC[C@H]2Cc2ccc(C)c(-c3ncon3)c2)c(-n2nccn2)cc1C [Example 79, (4,5-Dimethyl-2-[1,2,3]triazol-2-yl-phenyl)-[(R)-3-(4-methyl-3-[1,2,4]oxadiazol-3-yl-benzyl)-morpholin-4-yl]-methanone]	–	13	0.4	–	–
O=C(c1cc(F)c(F)cc1-n1nccn1)N1CCOC[C@H]1Cc1cccc(-c2ncon2)c1 [Example 80, (4,5-Difluoro-2-[1,2,3]triazol-2-yl-phenyl)-[(R)-3-(3-[1,2,4]oxadiazol-3-yl-benzyl)-morpholin-4-yl]-methanone]	–	645	28	–	–
O=C(c1cccc(F)c1-n1nccn1)N1CCOC[C@H]1Cc1cccc(-c2ncon2)c1 [Example 82, (3-Fluoro-2-[1,2,3]triazol-2-yl-phenyl)-[(R)-3-(3-[1,2,4]oxadiazol-3-yl-benzyl)-morpholin-4-yl]-methanone]	–	1140	41	–	–
O=C(c1ccc(Cl)cc1-n1nccn1)N1CCOC[C@H]1Cc1cccc(-c2ncon2)c1 [Example 86, (4-Chloro-2-[1,2,3]triazol-2-yl-phenyl)-[(R)-3-(3-[1,2,4]oxadiazol-3-yl-benzyl)-morpholin-4-yl]-methanone]	–	2650	42	–	–
O=C(c1cc(F)ccc1-n1nccn1)N1CCOC[C@H]1Cc1cccc(-c2ncon2)c1 [Example 88, (5-Fluoro-2-[1,2,3]triazol-2-yl-phenyl)-[(R)-3-(3-[1,2,4]oxadiazol-3-yl-benzyl)-morpholin-4-yl]-methanone]	–	893	30	–	–
Cc1cc(C)c(-n2nccn2)c(C(=O)N2CCOC[C@H]2Cc2cccc(-c3ncon3)c2)c1 [Example 89, (3,5-Dimethyl-2-[1,2,3]triazol-2-yl-phenyl)-[(R)-3-(3-[1,2,4]oxadiazol-3-yl-benzyl)-morpholin-4-yl]-methanone]	–	420	7	–	–
Cc1cc(-n2nccn2)c(C(=O)N2CCOC[C@H]2Cc2cccc(-n3nccn3)c2)cc1Cl [Example 103, (5-Chloro-4-methyl-2-[1,2,3]triazol-2-yl-phenyl)-[(R)-3-(3-[1,2,3]triazol-2-yl-benzyl)-morpholin-4-yl]-methanone]	–	47	0.7	–	–
COc1cc(C(=O)N2CCOC[C@H]2Cc2cccc(-n3nccn3)c2)c(-n2nccn2)cc1Cl [Example 104, (4-Chloro-5-methoxy-2-[1,2,3]triazol-2-yl-phenyl)-[(R)-3-(3-[1,2,3]triazol-2-yl-benzyl)-morpholin-4-yl]-methanone]	13000	117	–	–	–
Cc1cc(C(=O)N2CCOC[C@H]2Cc2cc(-n3nccn3)ccc2F)c(-n2nccn2)cc1C [Example 128, (4,5-Dimethyl-2-[1,2,3]triazol-2-yl-phenyl)-[(R)-3-(2-fluoro-5-[1,2,3]triazol-2-yl-benzyl)-morpholin-4-yl]-methanone]	–	30	0.7	–	–
O=C(c1c(F)cccc1-n1nccn1)N1CCOC[C@H]1Cc1cc(-n2nccn2)ccc1F [Example 136, [(R)-3-(2-Fluoro-5-[1,2,3]triazol-2-yl-benzyl)-morpholin-4-yl]-(2-fluoro-6-[1,2,3]triazol-2-yl-phenyl)-methanone]	–	574	37	–	–
O=C(c1cc(F)c(F)cc1-n1nccn1)N1CCOC[C@H]1Cc1cc(-n2nccn2)ccc1F [Example 137, (4,5-Difluoro-2-[1,2,3]triazol-2-yl-phenyl)-[(R)-3-(2-fluoro-5-[1,2,3]triazol-2-yl-benzyl)-morpholin-4-yl]-methanone]	–	202	30	–	–
Cc1ccc(-n2nccn2)c(C(=O)N2C[C@@H](C)OC[C@H]2Cc2cc(-n3ccnn3)ccc2F)c1 [Example 140, [(2R,5R)-5-(2-Fluoro-5-[1,2,3]triazol-1-yl-benzyl)-2-methyl-morpholin-4-yl]-(5-methyl-2-[1,2,3]triazol-2-yl-phenyl)-methanone]	–	1110	27	–	–
C[C@@H]1CN(C(=O)c2ccccc2-n2nccn2)[C@H](Cc2cc(-c3ncccn3)ccc2F)CO1 [Example 148, [(2R,5R)-5-(2-Fluoro-5-pyrimidin-2-yl-benzyl)-2-methyl-morpholin-4-yl]-(2-[1,2,3]triazol-2-yl-phenyl)-methanone]	–	1940	39	–	–
Cc1ccc(C(=O)N2C[C@@H](C)OC[C@H]2Cc2cc(-c3ncccn3)ccc2F)c(-n2nccn2)c1C [Example 151, (3,4-Dimethyl-2-[1,2,3]triazol-2-yl-phenyl)-[(2R,5R)-5-(2-fluoro-5-pyrimidin-2-yl-benzyl)-2-methyl-morpholin-4-yl]-methanone]	–	818	8	–	–
Cc1cccc(C(=O)N2CCOC[C@H]2Cc2cc(-c3ncccn3)ccc2F)c1-n1nccn1 [Example 157, [(R)-3-(2-Fluoro-5-pyrimidin-2-yl-benzyl)-morpholin-4-yl]-(3-methyl-2-[1,2,3]triazol-2-yl-phenyl)-methanone]	–	2590	39	–	–
Cc1cccc(C(=O)N2CCOC[C@H]2Cc2cc(-c3ncon3)ccc2F)c1-n1nccn1 [Example 177, [(R)-3-(2-Fluoro-5-[1,2,4]oxadiazol-3-yl-benzyl)-morpholin-4-yl]-(3-methyl-2-[1,2,3]triazol-2-yl-phenyl)-methanone]	–	893	25	–	–
O=C(c1ccccc1-n1nccn1)N1CCOC[C@H]1Cc1ccc(Cl)c(-c2ncccn2)c1 [Example 194, [(R)-3-(4-Chloro-3-pyrimidin-2-yl-benzyl)-morpholin-4-yl]-(2-[1,2,3]triazol-2-yl-phenyl)-methanone]	–	2260	33	–	–
